# Test results as given in article PMC11574108, “4-Furanylvinylquinoline derivative as a new scaffold for the design of oxidative stress initiator and glucose transporter inhibitor drugs” (Scientific Reports, 2024).
# Columns and labels:
# NHDF = test: Monolayer MTS cytotoxicity against normal cells; format: cell-based; conditions: NHDF, normal human dermal fibroblasts, 72-h incubation
# From the text: The human colon carcinoma cell line HCT 116 with wild-type p53 (p53^+/+) and the human glioblastoma cell line U-251 were obtained from ATCC, while the HCT 116 with a p53 deletion (p53^−/−) was kindly provided by Prof. M. Rusin from the Maria Sklodowska-Curie Memorial Cancer Center and Institute of Oncology in Gliwice, Poland. The human chronic myelogenous leukaemia cell line K562 and the normal human cell dermal fibroblast cell line NHDF were purchased from Sigma-Aldrich and PromoCell, respectively. Both the HCT 116 and U-251 cell lines were cultured in Dulbecco’s modified Eagle’s medium (DMEM) supplemented with 10% inactivated foetal bovine serum (FBS). The DMEM for the NHDF contained 15% non-inactivated FBS. K562 cells were cultured in RPMI medium completed by 10% inactivated FBS. Additionally, the media were supplemented with antibiotics (streptomycin and penicillin – 1% v/v; Sigma-Aldrich). The cell culture was conducted in 75 cm^2 flasks (Nunc) under standard conditions (37 °C, 5% CO2 humidified atmosphere). Furthermore, the cell lines were frequently tested for mycoplasma using the qRT-PCR technique with specific Mycoplasma primers to confirm the lack of contamination.
# The cells were seeded in 96-well plates (Nunc) with 5,000 or 4,000 cells per well for the cancer cells and NHDF, respectively, and incubated under standard conditions at 37 °C overnight. The culture media were then changed for freshly prepared solutions of the tested compounds in various concentrations. After 72-h incubation the antiproliferative assay was carried out as follows: the solutions of the compounds were changed in each well to 100 µL DMEM without phenol red and 20 µL of CellTiter 96 AQueous One Solution-MTS (Promega). The plates were incubated for 1 h at 37 °C, and the absorbance was then measured at 490 nm using a multi-plate reader (Synergy 4, BioTek). The experiment for each sample was repeated at least three times.
# Additionally, the compounds were also tested for their cytotoxicity against normal cells – human dermal fibroblasts (NHDF).
# HCT 116 p53+/+ = test: Intracellular ROS level measurement (CellROX Green); format: cell-based, human; conditions: 1 µM, 24 h
# Protocol: (§1) The cells (9,000 per well) were seeded in 96-well plates and treated with at freshly prepared 1 µM solution of 13 for 3, 6, 9, 12, and 24 h. The ROS levels were measured immediately according to the CellROX Green Reagent procedure. Additionally, the number of cells in each well during measurement was estimated using Hoechst 33,342 (Molecular Probes™). Briefly, after treatment the medium was removed and […] mixture of CellROX Green Reagent ([…]) and Hoechst 33,342 ([…]) was added to each well. The plates were incubated for 30 min at 37 °C in the dark, and the fluorescence of samples was then measured using a multiplate reader (Synergy 4, Bio Tek). Readings were performed at 485 nm excitation and 520 nm emission, as well as at 345 nm excitation and 485 nm emission for the CellROX Green Reagent and Hoechst 33,342, respectively. ROS levels were calculated as the percentage relative to the untreated cell levels (control). The experiments were carried out three times.
# (§2) To determine the ROS level, the fluorescent CellROX Green Reagent was used, being measured by a spectroscopic multi-plate reader. […] The ROS level was several percent higher compared to the control after only 3 h. After 24 h the amount of ROS increased by as much as 50% relative to the untreated cells. Similar observations were made in the case of the HCT 116 p53^+/+ cells. However, the generation of ROS was less pronounced, especially at the first time points. Nevertheless, after 24 h, the level of ROS was about 40% higher. […] The highest (20% growth) occurred after 9 h and 24 h. […] The intracellular ROS levels are rapidly regulated by activated p53, which initially decreases and then subsequently increases them[42]. The weaker response toward ROS generation in these cells might have been caused by the fact that U-251 cells are resistant to exposure to oxidative stress. […] Additionally, cancer cells with a p53 mutation have a higher level of ROS than those with the wild type. Some p53 mutants can gain oncogenic features that are described as “gain-of-function” (GOF), among them being U-251 cells. […]
# HCT 116 p53-/- = test: as above; format: cell-based, human; conditions: 1 µM, 24 h
# Protocol: as §1, §2
# U-251 = test: as above; format: cell-based, human; conditions: 1 µM, after 9 h and 24 h
# Protocol: as §1, §2
# GLUT-1 = test: qRT-PCR, GLUT-1 mRNA expression; format: cell-based, human; conditions: HCT 116 p53-/-, 24 and 48 h
# Protocol: The cells were seeded in 35 mm Petri dishes at a density of 500,000 cells and incubated at 37 °C for 24 h. The total RNA was isolated after incubation with solutions of 13 (0.5 µM and 1.0 µM) for 24 h and 48 h, respectively. The isolation from the samples was carried out according to a TRIzol™ Reagent protocol (Thermo Fisher Scientific). Synthesis of cDNA was performed with 2 µg of total RNA using a GoScript™ Reverse Transcriptase kit (Promega) with Oligo(dT)23 Primers. Real-Time PCR was carried out using a CFX96 Touch™ Real-Time PCR Detection System (Bio-Rad) in 10 µL reaction volume. Each sample contained SsoAdvanced™ Universal SYBR Green Supermix (Bio Rad), a specific primer pair mix (0.5 µM each), and 1 µL of cDNA. […] The obtained data were analysed based on a comparison of the expression of the target genes and normalized to a reference gene (GAPDH) using the Livak-Schmittgen (2^−ΔΔCT) method. […]
# To verify the effect of derivative 13 on glucose transporters at the mRNA level, the expression of the genes encoding the best-characterised glucose transporters in cells was quantified in real-time. In addition to GLUT-1, the effect of the tested derivative on changes in the expression of GLUT-3 and GLUT-4 was also evaluated (Fig. 8). […]
compound,measurement,setting,value
O=[N+]([O-])c1ccc(/C=C/c2ccnc3ccccc23)o1 [Compound 13],IC50,NHDF,649 ± 60 nM
same,ROS level increase relative to untreated cells,HCT 116 p53+/+,about 40%
same,ROS level increase relative to untreated cells,HCT 116 p53-/-,50%
same,ROS level increase relative to untreated cells,U-251,20%
same,GLUT-1 mRNA level vs control,GLUT-1,significant decrease
